Measured values published in patent US5494927A, “3,5-di-tertiarybutyl-4-hydroxyphenylmethylene derivatives of 2-substituted thiazolidinones, oxazolidinones, and imidazolidinones as antiinflammatory agents” (priority 1994, dated 1996).
Values joined by “and” are separate entries in the source; they are usually repeats but may differ in a detail not shown here. Equal values may be shown once. Where a name gives a salt, the structure may show the parent alone.

Key:
5-lipoxygenase = molecular target: T1, 5-lipoxygenase (Rattus norvegicus, UniProt P12527); assay: ARBL whole cell 5-lipoxygenase assay (LTB4 formation in RBL-1 cells); format: cell-based; details: for IC50: A23187 stimulated, read-out: ARBL IC50 for LTB4 inhibition; for inhibition at 10 µM: read-out: ARBL % inhibition of LT
T1 construct: host or cells: RBL-1 rat basophilic leukemia cells
T1 sequence (P12527 1-673): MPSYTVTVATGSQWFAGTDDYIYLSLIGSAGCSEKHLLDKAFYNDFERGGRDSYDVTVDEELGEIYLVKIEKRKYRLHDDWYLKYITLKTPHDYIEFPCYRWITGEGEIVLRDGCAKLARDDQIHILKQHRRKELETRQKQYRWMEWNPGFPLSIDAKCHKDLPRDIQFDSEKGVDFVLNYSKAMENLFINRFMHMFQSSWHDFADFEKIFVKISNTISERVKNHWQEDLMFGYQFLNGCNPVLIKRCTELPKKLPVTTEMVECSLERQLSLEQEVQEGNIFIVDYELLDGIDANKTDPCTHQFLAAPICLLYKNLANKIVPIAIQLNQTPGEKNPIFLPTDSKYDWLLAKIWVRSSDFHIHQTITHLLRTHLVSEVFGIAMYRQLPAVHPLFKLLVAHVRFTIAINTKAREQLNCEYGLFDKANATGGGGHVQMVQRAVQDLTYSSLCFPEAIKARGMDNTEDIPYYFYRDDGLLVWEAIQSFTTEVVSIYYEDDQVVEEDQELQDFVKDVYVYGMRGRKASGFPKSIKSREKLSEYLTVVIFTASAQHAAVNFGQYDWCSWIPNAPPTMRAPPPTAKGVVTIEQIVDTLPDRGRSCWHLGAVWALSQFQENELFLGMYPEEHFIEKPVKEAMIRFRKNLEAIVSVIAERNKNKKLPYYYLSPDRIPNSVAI
Procedure: (§1) ARBL/ARBC WHOLE CELL 5-LIPOXYGENASE AND CYCLOOXYGENASE ASSAYS
(§2) The rat basophilic leukemia cell line (RBL-1) was obtained from the American Type Culture Collection (Rockville, Md.).
(§3) Radioimmunoassay (RIA) kits of LTB4 and PGF2.sbsb.α were obtained from Amersham (Arlington Heights, Ill.) and Seragen (Boston, Me.), respectively.
(§4) All tissue culture media were obtained from GIBCO (Grand Island, N.Y.).
(§5) RBL-1 cells are grown in suspension culture in Eagle's minimum essential medium supplemented with 12% fetal bovine serum at 37° C. in an incubator supplied with air-5% carbon dioxide. Cells are harvested by centrifugation. They are washed with cold phosphate buffered saline pH 7.4 (PBS; NaCl, 7.1 g; Na2 HPO4, 1.15 g; KH2 PO4, 0.2 g; and KCl, 0.2 g/L). Cells are finally suspended in PBS containing 1.0 mM calcium at a density of 2×10^6 cells/mL. Cells are incubated with and without test agent (in DMSO) (1% DMSO is without effect on arachidonic acid metabolism) for 10 minutes at room temperature. Calcium ionophore A23187 (5 μM) is added and cells are incubated for 7 minutes at 37° C. The reaction is stopped by chilling the tubes on ice for 10 minutes. Cells are separated by centrifugation and the supernatant is stored at -20°. Aliquots (100 μL) are analyzed for LTB4 and PGF2.sbsb.α using radioimmunoassay kits as provided by the supplier.
(§6) Table I contains biochemical data obtained from this whole cell assay as IC50 s which are calculated as the amount of test compound causing 50% inhibition or % of inhibition at the named micromoles (μM) of LTB4 or PGF2.sbsb.α formation.

cyclooxygenase = assay: ARBC whole cell cyclooxygenase assay (PGF2α formation in RBL-1 cells); format: cell-based, rat; details: for IC50: A23187 stimulated; for ARBC % inhibition of PGF2α: @ 10 μM
Procedure: as §1, §2, §3, §4, §5, §6

[1] = system: carrageenan-induced rat foot paw edema; assay: Carrageenan-induced rat foot paw edema-2 (CFE-2) assay; format: in vivo; details: dosed 1 hour before carrageenan, edema at 5 hours
Procedure: Carrageenan-Induced Rat Foot Paw Edema-2
CARRAGEENAN-INDUCED RAT FOOT PAW EDEMA-2 (CFE-2) ASSAY: PROTOCOL
Carageenan solution (1% w/v) is prepared by dissolving 100 mg carrageenan (Marine Colloidal Div., Springfield, N.J.) in 10 mL of sterile saline (0.9%) solution (Travenol). The solution is vortexed for 30 to 45 minutes. Animals are dosed with compound 1 hour before carrageenan challenge. Foot paw edema is induced by injecting 0.10 mL of the 1% carrageenan subcutaneously into the plantar portion of the right hind paw of each rat under light anesthesia. Initial foot paw volume is measured immediately following carrageenan challenge using mercury plethysmography (Buxco Electronics). Edema is measured 5 hours after carrageenan. The difference between the 5-hour and the initial paw volume is expressed as delta edema. The delta edema for each test group of animals is used to calculate the percent inhibition of edema achieved by the compound at the test dose compared with the vehicle control group. The data in Table I (the dose at which swelling is inhibited by the noted percent) is calculated by probit analysis for the dose at which percent inhibition occurs.

[2] = system: Mycobacterium-induced rat footpad edema; assay: Mycobacterium-induced rat footpad edema assay (MFE); format: in vivo; details: for ED40: Rattus norvegicus, swelling 72 hours after Mycobacterium injection, read-out: MFE ID40 (dose at which swelling is inhibited by 40%); for MFE % inhibition of swelling: 72 hours
Procedure: MYCOBACTERIUM-INDUCED RAT FOOTPAD EDEMA ASSAY (MFE): PROTOCOL
Mycobacterium butyricum (5 mg/mL) is suspended in paraffin oil by sonication for 10 minutes in an ice bath. Footpad edema is induced on Day 0 by injecting 0.1 mL of the Mycobacterium mixture into the left hindpaw of lightly anesthetized rats. Swelling in the injected hindpaw is determined by mercury plethysmography 72 hours after injection. Groups of rats are treated with test compounds (suspended in 0.5% hydroxypropyl methylcellulose with 0.2% Tween-80) or vehicle 1 hour before Mycobacterium injection and on Days 1 and 2. Inhibition of swelling is determined by comparing the change in hindpaw volume in compound- and vehicle-treated rats. An ID40 (the dose at which swelling is inhibited by 40%) is calculated by probit analysis or shown as the % inhibition at the dose expressed as μM, i.e., % at μM.

gastric ulcers in rats = assay: Gastric ulcerogenicity (UD); format: in vivo, Wistar rats; set-up: key: N is not active at the dose tested; details: @ 200; oral, fasted rats, 6 hours
Procedure: GASTRIC ULCEROGENICITY (UD): PROTOCOL
Male outbred Wistar rats (100-250 g) are fasted for 24 hours. After fasting, test compounds are administered orally (in 2 mL/kg of 0.5% hydroxypropyl methylcellulose) and the rats are denied access to food and water for 6 more hours. The rats are then sacrificed with CO2 so that the stomachs can be removed, opened along the greater curvature, and evaluated for the presence of gastric ulcers. Results are expressed as the percent of rats with gastric ulcers at a given dose or as the UD50 (the dose which causes ulcers in 50% of the rats).

Molecule: CON(C)C1=NC(=O)/C(=C/c2cc(C(C)(C)C)c(O)c(C(C)(C)C)c2)S1
- IC50 (5-lipoxygenase): 1.7 µM
- IC50 (cyclooxygenase): 0.33 µM
- CFE % inhibition of edema ([1]; @ 10): 41%
- ED40 [2]: 13.2 mg/kg

Molecule: 5-[[3,5-Bis(1,1-dimethylethyl)-4-hydroxylphenyl]methylene]-2-[[2-(dimethylamino)ethyl]amino-4(5H-thiazolone, (Z)- [Example 10]
- ARBC % inhibition of PGF2α (cyclooxygenase): 87%

Molecule: CC(C)(C)c1cc(/C=C2\SC(N)=NC2=O)cc(C(C)(C)C)c1O [Example 1B, 5-[[3,5-Bis(1,1-dimethylethyl)-4-hydroxyphenyl]methylene]-2-imino-4-thiazolidinone, (Z)-, methanesulfonate (1:1) salt]
- inhibition at 10 µM (5-lipoxygenase): 100%
- ARBC % inhibition of PGF2α (cyclooxygenase): 80%
- ED40 [2]: < 10 mg/kg
- Gastric Ulcerogenicity UD50 (gastric ulcers in rats): N

Molecule: CC(C)(C)c1cc(/C=C2\SC(=NO)NC2=O)cc(C(C)(C)C)c1O [Example 4, 5-[[3,5-bis(1,1-dimethylethyl)-4-hydroxyphenyl]methylene]-2,4-thiazolidinedione, 2-oxime (Z)-]
- inhibition at 10 µM (5-lipoxygenase): 100%
- ARBC % inhibition of PGF2α (cyclooxygenase): 81%
- CFE % inhibition of edema ([1]; @ 10): 32%
- CFE % inhibition of edema ([1]; @ 30): 17%

Molecule: CSC1=NC(=O)/C(=C/c2cc(C(C)(C)C)c(O)c(C(C)(C)C)c2)S1 [Example 5, 5-[[3,5-Bis(1,1-dimethylethyl)-4-hydroxyphenyl]methylene]-2,(methylthio)-4(5H)-thiazolone, (Z)-]
- IC50 (5-lipoxygenase): 0.5 µM and 0.8 µM
- IC50 (cyclooxygenase): < 0.6 µM
- CFE % inhibition of edema ([1]; @ 10): 36%
- CFE % inhibition of edema ([1]; @ 30): 47%
- MFE % inhibition of swelling ([2]; @ 2): 27%
- MFE % inhibition of swelling ([2]; @ 50): 23%

Molecule: CC(C)(C)c1cc(/C=C2\SC(=NNC(N)=S)NC2=O)cc(C(C)(C)C)c1O [Example 7, 2-[5-[[3,5-Bis(1,1-dimethylethyl)-4-hydroxyphenyl]methylene]-4-oxo-2-thiazolidinylidene]hydrazine-carbothiamide, (Z)-]
- IC50 (5-lipoxygenase): 0.39 µM
- IC50 (cyclooxygenase): 4.55 µM

Molecule: CC(C)(C)c1cc(C=C2SC(NC#N)=NC2=O)cc(C(C)(C)C)c1O [Example 9, [5-[[3,5-Bis(1,1-dimethylethyl)-4,hydroxyphenyl]methylene]-4,5-dihydro-4-oxo-2-thiazolyl]cyanamide]
- IC50 (cyclooxygenase): 0.16 µM
- CFE % inhibition of edema ([1]; @ 30): 49%
- MFE % inhibition of swelling ([2]; @ 3): 32%

Molecule: CC(NC1=NC(=O)C(=Cc2cc(C(C)(C)C)c(O)c(C(C)(C)C)c2)S1)C(=O)O (centres unmarked) [Example 12]
- inhibition at 10 µM (5-lipoxygenase): 100%
- ARBC % inhibition of PGF2α (cyclooxygenase): 55%
